Biological target: truncated CRBN (319-427) (Homo sapiens (Human), UniProt Q96SW2)
Assay: Fluorescence binding assay (fluorescence quenching), affinity to E3-CEREBLON (CRBN)-ubiquitin ligase
Settings: pH 6.5
Procedure: Fluorescence quenching end point measurements were performed in black polystyrene 384-plates on Tecan Safire monochromator reader with the following settings: excitation 280 nm; excitation bandwidth 10.0 nm; emission collection 340 nm; emission bandwidth 20.0 nm; high sensitivity flash mode; integration time 40 μS; delay 0 μm. All measurements were done in duplicates; GraphPad Prism 5.03 was used for data evaluation, curve fitting, plotting and determination of IC50 values.
Serial dilutions of each tested ligands were mixed with truncated CRBN (319-427) to a final volume of 25 μL in the assay buffer (20 mM sodium phosphate buffer, pH 6.5, with 150 mM sodium chloride). The final concentration of CRBN in all assay will be 5-10 μM with DMSO level at 4%. A control lanes were prepared with only tested ligands without the addition of CRBN, top up with assay buffer to 25 μL. Plates were incubated for 5 minutes and analyzed using the monochromator plate reader.
IC50 is the compound concentration that causes 50% quenching of the desired activity.

[1] = ubiquitination moiety and linker

truncated CRBN (319-427), sequence (Q96SW2 319-427): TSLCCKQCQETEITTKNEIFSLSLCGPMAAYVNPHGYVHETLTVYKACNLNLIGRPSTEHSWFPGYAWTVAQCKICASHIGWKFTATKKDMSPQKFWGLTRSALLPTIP

Compound | IC50 (ubiquitination moiety) | IC50 [1]
O=C1Cc2ccc(C(=O)Nc3ccncc3)cc2N1 [Compound 031, 2-oxo-N-(pyridin-4-yl)indoline-6-carboxamide] | 100 to 300 µM | –
[N-]=[N+]=NCCOCCOCCOCCNc1cc(-c2ccc3c(c2)CC(=O)N3)ccn1 [Compound 088, 5-(2-((2-(2-(2-(2-azidoethoxy)ethoxy)ethoxy)ethyl)amino)pyridin-4-yl)indolin-2-one] | – | 100 to 300 µM
O=C1Cc2ccc(C(=O)NC3CCCCC3)cc2N1 [Compound 025, N-cyclohexyl-2-oxoindoline-6-carboxamide] | > 300 µM | –
NC1CCCN(C(=O)c2ccc3c(c2)CC(=O)N3)C1 (centres unmarked) [Compound 081, 5-(3-aminopiperidine-1-carbonyl)indolin-2-one] | > 300 µM | –
O=C1Cc2cc(-c3ccncc3)ccc2N1 [Compound 039, 5-(pyridin-4-yl)indolin-2-one] | 100 to 300 µM | –
Nc1ccc(OCCOCCOCCOCCNC(=O)c2cccc(-c3ccc4c(c3)NC(=O)C4)c2)cc1 [Compound 090, N-(2-(2-(2-(2-(4-aminophenoxy)ethoxy)ethoxy)ethoxy)ethyl)-3-(2-oxoindolin-6-yl)benzamide] | – | 100 to 300 µM
O=C1Cc2ccc(OC3CCNCC3)cc2N1 [Compound 034, 6-(piperidin-4-yloxy)indolin-2-one] | > 300 µM | –
[N-]=[N+]=NCCOCCOCCOCCNc1ccc(-c2ccc3c(c2)NC(=O)C3)cn1 [Compound 089, 6-(6-((2-(2-(2-(2-azidoethoxy)ethoxy)ethoxy)ethyl)amino)pyridin-3-yl)indolin-2-one] | – | 100 to 300 µM
CC(=O)Nc1ncc(-c2ccc3c(c2)CC(=O)N3)cc1C [Compound 048, N-(3-methyl-5-(2-oxoindolin-5-yl)pyridin-2-yl)acetamide] | 100 to 300 µM | –
Nc1ccc(OCCOCCOCCOCCNC(=O)c2cccc(-c3ccc4c(c3)CC(=O)N4)c2)cc1 [Compound 091, N-(2-(2-(2-(2-(4-aminophenoxy)ethoxy)ethoxy)ethoxy)ethyl)-3-(2-oxoindolin-5-yl)benzamide] | – | 1 to 100 µM
[N-]=[N+]=NCCOCCOCCOCCNc1ccc(C(=O)Nc2ccc3c(c2)CC(=O)N3)cn1 [Compound 086, 6-((2-(2-(2-(2-azidoethoxy)ethoxy)ethoxy)ethyl)amino)-N-(2-oxoindolin-5-yl)nicotinamide] | – | 1 to 100 µM
[N-]=[N+]=NCCOCCOCCOCCNc1cc(-c2ccc3c(c2)NC(=O)C3)ccn1 [Compound 085, 6-(2-((2-(2-(2-(2-azidoethoxy)ethoxy)ethoxy)ethyl)amino)pyridin-4-yl)indolin-2-one] | – | 100 to 300 µM
CC(=O)N1CCC(C(=O)Nc2ccc3c(c2)CC(=O)N3)CC1 [Compound 060, 1-acetyl-N-(2-oxoindolin-5-yl)piperidine-4-carboxamide] | 100 to 300 µM | –
CCOC(=O)c1cc(-c2ccc3c(c2)NC(=O)C3)ccn1 [Compound 066, ethyl 4-(2-oxoindolin-6-yl)picolinate] | > 300 µM | –
O=C1Cc2ncc(-c3ccncc3)cc2N1 [Compound 075, 6-(pyridin-4-yl)-1,3-dihydro-2H-pyrrolo[3,2-b]pyridin-2-one] | > 300 µM | –
COc1cc(-c2ccc3c(c2)CC(=O)N3)ccn1 [Compound 041, 5-(2-methoxypyridin-4-yl)indolin-2-one] | > 300 µM | –
CC(C)C1C(=O)Nc2ccc(-c3ccncc3)cc21 (centres unmarked) [Compound 082, 3-isopropyl-5-(pyridin-4-yl)indolin-2-one] | > 300 µM | –
O=C1Cc2cc(-c3cccnc3)ccc2N1 [Compound 056, 5-(pyridin-3-yl)indolin-2-one] | 100 to 300 µM | –

Compound | IC50 (ubiquitination moiety) | IC50 [1]
COc1cc(-c2ccc3c(c2)NC(=O)C3)ccn1 [Compound 010, 6-(2-methoxypyridin-4-yl)indolin-2-one] | 100 to 300 µM | –
O=C1Cc2ccc(Oc3ccnc(Cl)n3)cc2N1 [Compound 035, 6-((2-chloropyrimidin-4-yl)oxy)indolin-2-one] | > 300 µM | –
[N-]=[N+]=NCCOCCOCCOCCNc1ccc(-c2ccc3c(c2)CC(=O)N3)cn1 [Compound 092, 5-(6-((2-(2-(2-(2-azidoethoxy)ethoxy)ethoxy)ethyl)amino)pyridin-3-yl)indolin-2-one] | – | 1 to 100 µM
O=C1Cc2ccc(-c3ccccn3)cc2N1 [Compound 004, 6-(pyridin-2-yl)indolin-2-one] | 100 to 300 µM | –
O=C1Cc2cnc(-c3ccncc3)cc2N1 [Compound 074, 6-(pyridin-4-yl)-1,3-dihydro-2H-pyrrolo[3,2-c]pyridin-2-one] | 100 to 300 µM | –
CN1CCN(CCNC(=O)c2ccc3c(c2)NC(=O)C3)CC1 [Compound 028] | > 300 µM | –
[N-]=[N+]=NCCOCCOCCOCCNc1ncccc1-c1ccc2c(c1)CC(=O)N2 [Compound 094, 5-(2-((2-(2-(2-(2-azidoethoxy)ethoxy)ethoxy)ethyl)amino)pyridin-3-yl)indolin-2-one] | – | 100 to 300 µM
O=C1Nc2cc(-c3ccncc3)ccc2C1(F)F [Compound 061, 3,3-difluoro-6-(pyridin-4-yl)indolin-2-one] | > 300 µM | –
CC1(C)C(=O)Nc2cc(-c3ccncc3)ccc21 [Compound 062, 3,3-dimethyl-6-(pyridin-4-yl)indolin-2-one] | > 300 µM | –
O=C1Cc2ccc(C(=O)NCc3cccnc3)cc2N1 [Compound 033, 2-oxo-N-(pyridin-3-ylmethyl)indoline-6-carboxamide] | > 300 µM | –
O=C1Cc2cc(Cl)c(C(=O)N3CCCCC3)cc2N1 [Compound 030, 5-chloro-6-(piperidine-1-carbonyl)indolin-2-one] | > 300 µM | –
[N-]=[N+]=NCCOCCOCCOCCNc1ncccc1-c1ccc2c(c1)NC(=O)C2 [Compound 095, 6-(2-((2-(2-(2-(2-azidoethoxy)ethoxy)ethoxy)ethyl)amino)pyridin-3-yl)indolin-2-one] | – | > 300 µM
CNc1cc(-c2ccc3c(c2)CC(=O)N3)ccn1 [Compound 047, 5-(2-(methylamino)pyridin-4-yl)indolin-2-one] | 100 to 300 µM | –
CNc1ccc(-c2ccc3c(c2)CC(=O)N3)cn1 [Compound 046, 5-(6-(methylamino)pyridin-3-yl)indolin-2-one] | 100 to 300 µM | –
Cc1cc(N)ncc1-c1ccc2c(c1)CC(=O)N2 [Compound 043, 5-(6-amino-4-methylpyridin-3-yl)indolin-2-one] | 100 to 300 µM | –
O=C1Cc2cc(NC(=O)c3cccnc3)ccc2N1 [Compound 072, N-(2-oxoindolin-5-yl)nicotinamide] | 100 to 300 µM | –
NCCCCCNc1cc(-c2ccc3c(c2)NC(=O)C3)ccn1 [Compound 087, 6-(2-((5-aminopentyl)amino)pyridin-4-yl)indolin-2-one] | – | > 300 µM

Second part, the molecule after the results:

IC50 (ubiquitination moiety) | IC50 [1] | Compound
> 300 µM | – | O=C1Cc2ccc(-c3cccnc3)cc2N1 [Compound 003, 6-(pyridin-3-yl)indolin-2-one]
100 to 300 µM | – | O=C1Cc2ccc(-c3ccncc3)cc2N1 [Compound 002, 6-(pyridin-4-yl)indolin-2-one]
> 300 µM | – | O=C1Cc2ccc(-c3cnc4[nH]ccc4c3)cc2N1 [Compound 017, 6-(1H-pyrrolo[2,3-b]pyridin-5-yl)indolin-2-one]
> 300 µM | – | NC1CCCN(C(=O)c2ccc3c(c2)NC(=O)C3)C1 (centres unmarked) [Compound 080, 6-(3-aminopiperidine-1-carbonyl)indolin-2-one]
> 300 µM | – | O=C1Cc2ccc(-c3ccc4[nH]ccc4c3)cc2N1 [Compound 016, 6-(1H-indol-5-yl)indolin-2-one]
> 300 µM | – | O=C1Cc2cc(C(=O)N3CCC(Cc4ccccc4)CC3)ccc2N1 [Compound 069, 5-(4-benzylpiperidine-1-carbonyl)indolin-2-one]
> 300 µM | – | O=C1Cc2ccc(-c3cccc(CN4CCNCC4)c3)cc2N1 [Compound 019, 6-(3-(piperazin-1-ylmethyl)phenyl)indolin-2-one]
> 300 µM | – | O=C1Cc2ccc(-c3ccc(N4CCNCC4)nc3)cc2N1 [Compound 065, 6-(6-(piperazin-1-yl)pyridin-3-yl)indolin-2-one]
1 to 100 µM | – | CC(C)(C)OC(=O)N1CCN(C(=O)c2cccc(-c3ccc4c(c3)CC(=O)N4)c2)CC1 [Compound 053, tert-butyl 4-(3-(2-oxoindolin-5-yl)benzoyl)piperazine-1-carboxylate]
100 to 300 µM | – | Cc1cc(-c2ccc3c(c2)NC(=O)C3)ccn1 [Compound 005, 6-(2-methylpyridin-4-yl)indolin-2-one]
100 to 300 µM | – | O=C1Cc2cc(C(=O)N3CCCCC3)ccc2N1 [Compound 058, 5-(piperidine-1-carbonyl)indolin-2-one]
> 300 µM | – | O=C1Cc2ccc(-c3ccc(F)nc3)cc2N1 [Compound 070, 6-(6-fluoropyridin-3-yl)indolin-2-one]
> 300 µM | – | O=C1Cc2ccc(-c3ccnc(Cl)c3)cc2N1 [Compound 009, 6-(2-chloropyridin-4-yl)indolin-2-one]
> 300 µM | – | O=C1Cc2cc(-c3ccc(N4CCCCC4)nc3)ccc2N1 [Compound 057, 5-(6-(piperidin-1-yl)pyridin-3-yl)indolin-2-one]
100 to 300 µM | – | CCOC(=O)c1cc(-c2ccc3c(c2)NC(=O)C3)ccn1 [Compound 014, ethyl 4-(2-oxoindolin-6-yl)picolinate]
1 to 100 µM | – | CNC(=O)c1cccc(-c2ccc3c(c2)NC(=O)C3)c1 [Compound 023, N-methyl-3-(2-oxoindolin-6-yl)benzamide]
> 300 µM | – | O=C1Cc2ccc(-c3cccc(C(=O)N4CCNCC4)c3)cc2N1 [Compound 021, 6-(3-(piperazine-1-carbonyl)phenyl)indolin-2-one]
> 300 µM | – | O=C1Cc2ccc(-c3ccc(C(=O)N4CCNCC4)cc3)cc2N1 [Compound 020, 6-(4-(piperazine-1-carbonyl)phenyl)indolin-2-one]

From patent US11542274B1, “Therapeutic compounds and methods of use thereof” (AGENCY FOR SCIENCE, TECHNOLOGY AND RESEARCH (A*STAR), priority 2019, dated 2023)
